{"source": "patent US20060009401A1", "about": "“Method for treatment and prevention of herpes zoster by topical application” (aRigen, Inc., priority 2004, published 2006)", "key": {"[1]": {"assay": "Study of interaction with 5-FU in rats", "format": "in vivo, Female Wister rats", "conditions": "for interaction with 5-FU: Groups 5 and 6, preparations for topical use combined with 5-FU; for Body weight (pre.) / Feed intake (pre.): before test", "source_text": "Interactions with 5-FU, a fluorouracil-based anticancer drug, were studies using sorivudine (BVAU) 3% cream and CVAU 3% cream. Female Wister rats were raised for one week, and hair from the blade bone to the waist was shaved under anesthesia. The preparations for topical use were applied two times a day for one week. The expression “p.o.” appearing in the table means oral administration.\nErythrocyte count and leukocyte count are values measured seven days after the start of administration."}, "EBV": {"test_system": "EBV", "conditions": "against EBV; cited from earlier work"}, "VZV": {"test_system": "VZV", "conditions": "against VZV; cited from earlier work"}, "[2]": {"conditions": "oral agent, administered at the same time; cited from earlier work"}, "[3]": {"conditions": "cited from earlier work"}, "HSV-1 [4]": {"test_system": "HSV-1", "conditions": "application to the skin, mice; cited from earlier work"}, "HSV-1 [5]": {"test_system": "HSV-1", "conditions": "against HSV-1; cited from earlier work"}, "[6]": {"molecular_target": "T1, dihydropyrimidine dehydrogenase (DPD) (Homo sapiens, UniProt Q12882)", "T1 sequence (Q12882 4-1025)": "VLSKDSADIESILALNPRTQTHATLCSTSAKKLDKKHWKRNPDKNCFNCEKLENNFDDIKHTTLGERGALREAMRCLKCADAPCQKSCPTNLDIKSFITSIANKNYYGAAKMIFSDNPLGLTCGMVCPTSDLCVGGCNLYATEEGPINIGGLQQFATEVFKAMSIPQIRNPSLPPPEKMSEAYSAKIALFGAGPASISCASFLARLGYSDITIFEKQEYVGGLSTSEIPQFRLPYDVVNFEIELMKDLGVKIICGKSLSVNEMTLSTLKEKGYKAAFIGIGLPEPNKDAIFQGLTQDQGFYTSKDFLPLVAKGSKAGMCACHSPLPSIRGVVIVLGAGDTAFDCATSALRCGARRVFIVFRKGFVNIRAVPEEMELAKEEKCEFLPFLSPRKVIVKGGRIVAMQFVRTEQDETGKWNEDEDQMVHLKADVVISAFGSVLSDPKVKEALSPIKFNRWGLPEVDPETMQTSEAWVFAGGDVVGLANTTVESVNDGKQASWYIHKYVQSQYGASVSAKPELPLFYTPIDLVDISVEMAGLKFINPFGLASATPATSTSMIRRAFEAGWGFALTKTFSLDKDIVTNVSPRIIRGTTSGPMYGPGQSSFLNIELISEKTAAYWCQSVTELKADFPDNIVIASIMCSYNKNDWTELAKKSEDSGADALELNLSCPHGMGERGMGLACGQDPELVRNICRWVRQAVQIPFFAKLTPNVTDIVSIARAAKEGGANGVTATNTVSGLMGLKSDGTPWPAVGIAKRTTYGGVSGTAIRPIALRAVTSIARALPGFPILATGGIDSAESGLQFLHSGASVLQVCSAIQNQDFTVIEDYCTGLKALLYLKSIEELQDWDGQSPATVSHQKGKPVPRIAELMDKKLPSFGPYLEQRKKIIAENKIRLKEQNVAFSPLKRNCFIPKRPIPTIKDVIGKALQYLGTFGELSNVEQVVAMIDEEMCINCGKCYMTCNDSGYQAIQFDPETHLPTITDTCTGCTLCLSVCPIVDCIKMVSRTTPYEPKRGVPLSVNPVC", "conditions": "re-absorbed BVU, metabolite of oral sorivudine; cited from earlier work"}, "[7]": {"conditions": "BVAU 30 mg/kg p.o. + 5-FU 60 mg/kg p.o."}, "[8]": {"conditions": "BVAU 30 mg/kg p.o. + 5-FU 60 mg/kg p.o., seven days after start"}, "[9]": {"conditions": "single agent p.o. (BVAU 30 mg/kg; 5-FU 60 mg/kg)"}, "[10]": {"conditions": "single agent p.o. (BVAU 30 mg/kg; 5-FU 60 mg/kg), seven days after start of administration"}}}
{"compound": "O=c1[nH]c(=O)n([C@@H]2O[C@H](CO)[C@@H](O)[C@@H]2O)cc1/C=C/Cl", "note": "[CVAU, 1-β-D-arabinofuranosyl-5-[(E)-2-chrolovinyl]uracil]", "values": [{"measurement": "interaction with 5-FU", "setting": "[1]", "result": "no interaction observed"}]}
{"compound": "O=c1[nH]c(=O)n([C@@H]2O[C@H](CO)[C@@H](O)[C@@H]2O)cc1/C=C/Br", "note": "[sorivudine, 1-β-D-arabinofuranosyl-5-[(E)-2-bromovinyl]uracil]", "values": [{"measurement": "Body weight (pre.)", "setting": "[1]; [7]", "result": 125}, {"measurement": "Feed intake (pre.)", "setting": "[1]; [7]", "result": 16}, {"measurement": "Body weight (7 d)", "setting": "[1]; [8]", "result": 88}, {"measurement": "Erythrocyte count", "setting": "[1]; [8]", "result": "892 10^4/mm^3"}, {"measurement": "Feed intake (7 d)", "setting": "[1]; [8]", "result": 3}, {"measurement": "leukocyte count", "setting": "[1]; [8]", "result": "5.8 10^2/mm^3"}, {"measurement": "side effect due to interaction with 5-FU", "setting": "[1]; Group 4, orally administered with 5-FU (positive control)", "result": "significant weight loss and myelo-suppression"}, {"measurement": "interaction with 5-FU", "setting": "[1]", "result": "no interaction observed"}, {"measurement": "Body weight (pre.)", "setting": "[1]; [9]", "result": 124}, {"measurement": "Feed intake (pre.)", "setting": "[1]; [9]", "result": 15}, {"measurement": "Body weight (7 d)", "setting": "[1]; [10]", "result": 143}, {"measurement": "Erythrocyte count", "setting": "[1]; [10]", "result": "653 10^4/mm^3"}, {"measurement": "Feed intake (7 d)", "setting": "[1]; [10]", "result": 16}, {"measurement": "leukocyte count", "setting": "[1]; [10]", "result": "45.6 10^2/mm^3"}, {"measurement": "antiviral activity", "setting": "EBV", "result": "extremely potent antiviral activity"}, {"measurement": "antiviral activity", "setting": "VZV", "result": "extremely potent antiviral activity"}, {"measurement": "adverse effect due to drug interaction with fluorouracil-based anticancer drugs", "setting": "[2]", "result": "died because of the adverse effect due to drug interaction"}, {"measurement": "solubility", "setting": "[3]", "result": "slightly soluble"}, {"measurement": "skin symptoms caused by inoculation with HSV-1", "setting": "HSV-1 [4]", "result": "suppresses the skin symptoms"}, {"measurement": "antiviral activity", "setting": "HSV-1 [5]", "result": "extremely potent antiviral activity"}]}
{"compound": "O=c1[nH]cc(/C=C/Br)c(=O)[nH]1", "note": "[BVU, bromovinyluracil]", "values": [{"measurement": "inhibition of DPD", "setting": "[6]", "result": "inhibits"}]}
